Where “and” joins values, the source holds several entries; their conditions need not be identical. Equal entries are not always repeated.
Assays:
[1] = system: H275Y mutated (oseltamivir-resistant) influenza A/H1N1pdm09 virus; details: human, in vivo
[2] = system: oseltamivir and peramivir-resistant influenza A/H1N1pdm09; details: five cases, treatment with oseltamivir or peramivir; cited from earlier work
[3] = target: neuraminidase of H275Y mutated influenza A/H1N1pdm09 virus isolates (Influenza A virus (H1N1pdm09), UniProt C3W5S3, H275Y); format: biochemical; details: read-out: 50% inhibitory concentration

Molecule	Time to fever alleviation [1] [h]	Time until fever subsided from the start of treatment [2] [h]	other results
[H]/N=C(\N)N[C@H]1C=C(C(=O)O)O[C@@H]([C@H](OC)[C@H](O)CO)[C@@H]1NC(C)=O [Laninamivir, laninamivir]	≤ 48	–	–
CCOC(=O)C1=C[C@@H](OC(CC)CC)[C@H](NC(C)=O)[C@@H](N)C1 [Oseltamivir, oseltamivir]	–	≤ 48	Average fever duration [1]: 89 h and 89 ± 47 h; Patients with fever alleviated within 48 hours [1]: 40%; Patients with prolonged fever, which continued for more than 100 hours [1]: 60%
CC(=O)N[C@H]1[C@H]([C@H](O)[C@H](O)CO)OC(C(=O)O)=C[C@@H]1N=C(N)N [Zanamivir, zanamivir]	≤ 48	–	–
peramivir	–	≤ 48	IC50 [3]: 24.7 nM and 22.1 nM and 29.8 nM and 19.1 nM and 18.7 nM and 22.4 nM and 23.3 nM

Reference: article PMC6837752, “Effectiveness of four types of neuraminidase inhibitors approved in Japan for the treatment of influenza” (PLoS ONE, 2019)
